Measurements taken from ChEMBL document CHEMBL5252638, “Novel triphenylphosphonium amphiphilic conjugates of glycerolipid type: synthesis, cytotoxic and antibacterial activity, and targeted cancer cell delivery” (RSC Med Chem, 2023).

What was measured:
[1] = species: Homo sapiens; assay: Selectivity index, ratio of IC50 for human WI-38 cells to IC50 for human SK-OV-3 cells
[2] = system: M-HeLa; assay: Cytotoxicity against human HelaM cells assessed as number of viable cells measured after 48 hrs by MTT based colorimetric assay; format: functional, cell-based
[3] = system: MCF7; assay: Cytotoxicity against human MCF7 cells assessed as number of viable cells measured after 48 hrs by MTT based colorimetric assay; format: functional, cell-based; settings: MCF7, 48 h
[4] = system: HuTu80; assay: Cytotoxicity against human HuTu80 cells assessed as number of viable cells measured after 48 hrs by MTT based colorimetric assay; format: functional, cell-based; settings: HuTu80, 48 h
[5] = system: PANC-1; assay: Cytotoxicity against human PANC-1 cells assessed as number of viable cells measured after 48 hrs by MTT based colorimetric assay; format: functional, cell-based; settings: PANC-1, 48 h
[6] = system: A549; assay: Cytotoxicity against human A549 cells assessed as number of viable cells measured after 48 hrs by MTT based colorimetric assay; format: functional, cell-based; settings: A549, 48 h
[7] = system: PC-3; assay: Cytotoxicity against human PC-3 cells assessed as number of viable cells measured after 48 hrs by MTT based colorimetric assay; format: functional, cell-based; settings: PC-3, 48 h
[8] = system: T98G; assay: Cytotoxicity against human T98G cells assessed as number of viable cells measured after 48 hrs by MTT based colorimetric assay; format: functional, cell-based
[9] = system: HepG2; assay: Cytotoxicity against human HepG2 cells assessed as number of viable cells measured after 48 hrs by MTT based colorimetric assay; format: functional, cell-based; settings: HepG2, 48 h
[10] = system: SK-OV-3; assay: Cytotoxicity against human SK-OV-3 cells assessed as number of viable cells measured after 48 hrs by MTT based colorimetric assay; format: functional, cell-based; settings: SK-OV-3, 48 h
[11] = system: DU-145; assay: Cytotoxicity against human DU-145 cells assessed as number of viable cells measured after 48 hrs by MTT based colorimetric assay; format: functional, cell-based; settings: DU-145, 48 h
[12] = Cytotoxicity against human WI-38 cells assessed as number of viable cells measured after 48 hrs by MTT based colorimetric assay; format: toxicity, cell-based
[13] = Cytotoxicity against human Chang liver cells assessed as number of viable cells measured after 48 hrs by MTT based colorimetric assay; format: toxicity, cell-based
[14] = species: Homo sapiens; assay: Selectivity index, ratio of IC50 for human WI-38 cells to IC50 for human HelaM cells
[15] = Selectivity index, ratio of IC50 for human WI-38 cells to IC50 for human MCF7 cells; format: toxicity; settings: WI-38 cells and MCF7 cells, read-out: Ratio IC50
[16] = species: Homo sapiens; assay: Selectivity index, ratio of IC50 for human WI-38 cells to IC50 for human HuTu80 cells
[17] = species: Homo sapiens; assay: Selectivity index, ratio of IC50 for human WI-38 cells to IC50 for human PANC-1 cells
[18] = Selectivity index, ratio of IC50 for human WI-38 cells to IC50 for human PC-3 cells; format: toxicity; settings: WI-38 cells and PC-3 cells, read-out: Ratio IC50
[19] = species: Homo sapiens; assay: Selectivity index, ratio of IC50 for human Chang liver cells to IC50 for human DU-145 cells
[20] = system: Staphylococcus aureus; assay: Antimicrobial activity against Staphylococcus aureus ATCC 6538 P FDA 209P by serial microdilution method; format: functional
[21] = system: Bacillus cereus; assay: Antimicrobial activity against Bacillus cereus ATCC 10702 NCTC 8035 by serial microdilution method; format: functional
[22] = system: Escherichia coli; assay: Antimicrobial activity against Escherichia coli ATCC 25922 by serial microdilution method; format: functional
[23] = system: Staphylococcus aureus; assay: Bactericidal against Staphylococcus aureus ATCC 6538 P FDA 209P by serial microdilution method; format: functional
[24] = system: Enterococcus faecalis; assay: Bactericidal activity against Enterococcus faecalis ATCC 29212 by serial microdilution method; format: functional
[25] = system: Escherichia coli; assay: Bactericidal activity against Escherichia coli ATCC 25922 by serial microdilution method; format: functional

Compound	IC50 [2]	IC50 [3]	IC50 [4]	IC50 [5]	IC50 [6]	IC50 [8]	IC50 [9]	IC50 [10]	IC50 [11]	IC50 at 48 h [12]	IC50 at 48 h [13]	further results
CCCCC/C=C\C/C=C\CCCCCCCC(=O)OC(COC(=O)CCCCCCC/C=C\CCCCCCCC)COC(=O)CCCC[P+](c1ccccc1)(c1ccccc1)c1ccccc1 (stereo unspecified)	32.1 µM	25.4 µM	3.7 µM	33.5 µM	54.4 µM	73.8 µM	58.2 µM	21 µM	19.2 µM	40 µM	36 µM	Ratio IC50 [1]: 1.9; IC50 [7]: 27.8 µM; Ratio IC50 [14]: 1.2; selectivity ratio [15]: 1.6; Ratio IC50 [16]: 10.8; Ratio IC50 [17]: 1.2; selectivity ratio [18]: 1.4; Ratio IC50 [19]: 1.9; MIC [20]: 7.5 µM; MIC [21]: 7.5 µM; MIC [22]: 30 µM; MBC [23]: 7.5 µM; MBC [24]: 30 µM; MBC [25]: 30 µM
COc1cccc2c1C(=O)c1c(O)c3c(c(O)c1C2=O)C[C@@](O)(C(=O)CO)C[C@@H]3O[C@H]1C[C@H](N)[C@H](O)[C@H](C)O1 [DOXORUBICIN]	2.1 µM	0.4 µM	0.2 µM	2.2 µM	0.7 µM	1 µM	0.2 µM	6.7 µM	0.3 µM	0.4 µM	0.5 µM	–
